# Positions of bridges follow the written chain, without caps; N, C: chain ends. Residues, ends and D or L forms follow the SMILES beside them. No end group written: not given here.
# Key:
# fresh human erythrocytes = assay: Hemolytic activity; assay type: cell-based; conditions: peptide 0.19 to 100 μM; 0.4% human erythrocytes in PBS pH 7.4, 1 h at 37°C, read at 405 nm; triplicate
# Protocol: Hemolytic activity was evaluated on fresh human erythrocytes washed three times with phosphate-buffered saline (PBS: 10 mM Na2HPO4, 1.8 mM K2-HPO4, pH 7.4, containing 140 mM NaCl and 2.7 mM KCl) ). Serial dilutions of the peptides with concentrations varying between 0.19–100 μM were incubated in Eppendorf tubes with a suspension of 0.4% erythrocytes in PBS. After 1 h at 37°C, the test tubes were centrifuged at 300g for 5 min at 5°C. Fifty microliter aliquots of the supernatants were transferred to 96-well plates and hemolysis was monitored at 405 nm using a microtiter plate reader. Negative and positive controls were prepared in PBS and in PBS supplemented with 0.1% SDS, respectively. Ang ll of the experiments was performed in triplicate.
# Ae.aegypti mosquitoes = assay: Survival of mosquitoes injected with ang II; assay type: in vivo, Aedes aegypti; conditions: 0.5 μl ang II at 10-200 μM intrathoracically; chi-square test p>0.5; mean of three independent experiments
# Protocol: Supplementary file pone.0003296.s001.tif: Figure S1 Survival of mosquitoes injected with different ang II concentrations. Ae.aegypti mosquitoes (10 females) were injected intrathoracically (0.5 μl) of ang II at 10 μM, 20 μM, 50 μM, 60 μM, 100 μM and 200 μM. After 24 hour the survival of mosquitoes was scored. […] Results are the mean of three independent experiments (20 mosquitoes/group), and bars represent standard errors of the mean. (0.18 MB TIF) Click here for additional data file.
# [1] = 25% pooled non-heat inactivated human serum in PBS, 37°C; 20 μl of 10 mg/ml stock in 1 ml; sampling 0-120 min; LC/ESI-MS peak area; triplicates; data not shown
Compound,Hemolytic Activity (fresh human erythrocytes),time to degradation in serum,effect on mosquito survival after 24 hour (Ae.aegypti mosquitoes),time within which the peptide was degraded in serum [1]
"CC[C@H](C)[C@H](NC(=O)[C@H](Cc1ccc(O)cc1)NC(=O)[C@@H](NC(=O)[C@H](CCCNC(=N)N)NC(=O)[C@@H]1CCCCNC(=O)C[C@H](N)C(=O)N[C@@H](CC(=O)O)C(=O)N1)C(C)C)C(=O)N[C@@H](Cc1c[nH]cn1)C(=O)N1CCC[C@H]1C(=O)N[C@@H](Cc1ccccc1)C(=O)O [VC1, Cyclo(0-1a)[Asp^0, endo-(Lys^1a)]-All] (H-DDKRVYIHPF-OH; lactam 1-3)",neg,< 30 min,,
"CC[C@H](C)[C@H](NC(=O)[C@H](Cc1ccc(O)cc1)NC(=O)[C@@H](NC(=O)[C@@H]1CCCCNC(=O)C[C@H](NC(=O)[C@@H](N)CC(=O)O)C(=O)N[C@@H](CCCNC(=N)N)C(=O)N1)C(C)C)C(=O)N[C@@H](Cc1c[nH]cn1)C(=O)N1CCC[C@H]1C(=O)N[C@@H](Cc1ccccc1)C(=O)O [VC3, Cyclo(1a-2a)[endo-(Asp^1a), endo-(Lys^2a)]-All] (H-DDRKVYIHPF-OH; lactam 2-4)",neg,< 30 min,,
"CC[C@H](C)[C@H](NC(=O)[C@H](Cc1ccc(O)cc1)NC(=O)[C@@H]1CCCCNC(=O)C[C@H](NC(=O)[C@H](CCCNC(=N)N)NC(=O)[C@@H](N)CC(=O)O)C(=O)N[C@@H](C(C)C)C(=O)N1)C(=O)N[C@@H](Cc1c[nH]cn1)C(=O)N1CCC[C@H]1C(=O)N[C@@H](Cc1ccccc1)C(=O)O [VC5, Cyclo(2a-3a)[endo-(Asp^2a), endo-(Lys^3a)]-All] (H-DRDVKYIHPF-OH; lactam 3-5)",neg,< 30 min,,
"CC[C@H](C)[C@H](NC(=O)[C@H](Cc1ccc(O)cc1)NC(=O)[C@@H](NC(=O)[C@H](CCCNC(=N)N)NC(=O)[C@@H](N)CC(=O)O)C(C)C)C(=O)N[C@@H](Cc1cnc[nH]1)C(=O)N1CCC[C@H]1C(=O)N[C@@H](Cc1ccccc1)C(=O)O [ang II, Angiotensin II]",neg,,no significant effects,≤ 30 min
"DDKRVYIHPF [VC2, [Asp^0, endo-(Lys^1a)]-All]",neg,< 30 min,,
"DDRKVYIHPF [VC4, [endo-(Asp^1a), endo-(Lys^2a)]-All]",neg,< 30 min,,
"DRDVKYIHPF [VC6, [endo-(Asp^2a), endo-(Lys^3a)]-All]",neg,< 30 min,,

# Source: PMC2546444, “Anti-Plasmodium Activity of Angiotensin II and Related Synthetic Peptides” (PLoS ONE, 2008)
